Values of other authors in patent US20240299501A1, “COMPOSITION AND METHODS OF TREATMENT USING TRANSDERMAL HORMONE SUPPLEMENTATION” (Xygenyx Inc., priority 2023, published 2024).

Columns and labels:
[1] = single penetration enhancer
[2] = test system: wide dynamic range neurons in the ventroposterolateral nucleus of the thalamus; settings: stated as 'is believed'
[3] = in the human body

Molecule | increase of drug uptake via the transdermal route (factor) [1] | other results
CC12CCC(CC1)C(C)(C)O2 [eucalyptol, 1,8-epoxy-p-menthane] | more than 10 | –
CCCCCc1cc(O)c2c(c1)OC(C)(C)C1CCC(C)=CC21 (stereo not shown) [THC, Δ-9-tetrahydrocannabinol] | – | potency relative to morphine in mediating pain [2]: ten times more powerful than morphine
CC(C)[C@@H]1CC[C@@H](C)C[C@H]1O [Menthol] | ≥ 10 | –
HGH: hormone comprising a peptide chain that is synthesized in the pituitary gland | – | biological half-life [3]: 10-20 minutes
